According to patent publication US12364722B2, “Multifunctional lactobacillus capable of relieving PFOA toxic effects and application thereof” (priority 2019, dated 2025):

Tested on: mice with constipation
Test: Loperamide constipation model: fecal water content and first black stool defecation time
Format: in vivo, BALB/c mice
Settings: loperamide 10 mg/kgBW constipation, vs model group
Text: 40 SPF male BALB/c mice (20-25 g) were randomly divided into 5 groups: a blank control group, a constipation model control group, a Lactobacillus fermentum CCFM1051 intervention group, a Lactobacillus plantarum control group and a phenolphthalein treatment group with 10 mice in each group. The freeze-dried Lactobacillus fermentum CCFM1051 powder was resuspended in skim milk powder to prepare a bacterial suspension with a concentration of 4.0×10^9 CFU/mL. […] The fecal water content was calculated by using the following formula: Fecal water content (%)=(wet weight of feces−dry weight of feces)/wet weight of feces×100. On the morning of the 17th day, the mice in the blank control group were gavaged with normal saline, the mice in the other groups were gavaged with loperamide, after the gavage for 1 h, all the mice were gavaged with 0.25 mL of an activated carbon arabic gum aqueous solution, each mouse was separately placed in a clean stainless steel cage covered with absorbent paper, time (min) from start of the gavage with the activated carbon to defecation of first black stool was recorded as first black stool defecation time to evaluate an effect of the Lactobacillus fermentum CCFM1051 on constipation of the mice, and during the period, the mice ate and drank freely.

Question: How did the “first black stool defecation time” value (activated carbon gavage) turn out when `O=C1OC(c2ccc(O)cc2)(c2ccc(O)cc2)c2ccccc21` [phenolphthalein] was run?
Answer: significantly shortened

Question: What about the fecal water content of the same compound?
Answer: extremely significantly increased
